Patent US20230293601A1 (SYNGEN BIOTECH CO., LTD., priority 2022, published 2023)

Tests used:
[1] = tested on: chemotherapy-induced diarrhea; conditions: literature, cited from earlier work
[2] = tested on: intestinal microflora; assay: Microflora analysis of feces of the mice (OTU clustering, heatmap, PLS-DA, metagenomeSeq); type: in vivo
Protocol: (§1) A number of 5-week-old male BALB/c strain mice are selected and randomly divided into groups. The experimental period is 18 days. The temperature of rearing environment of the mice in each group is maintained at 22±2° C., with a day and night cycle of 12 hours each.
After the test in embodiment 4, the feces of the mice in each group are collected, and sequence analysis of the feces of the mice in each group is outsourced, and then similarity (greater than 97%) OTUs (Operational Taxonomic Units) clustering and species classification analysis are performed. According to the species annotation results, the top 10 species with relative abundance in the mice in each group in the phylum are selected. Wherein fecal sequencing analysis and microflora analysis are known to a person having ordinary skill in the art to which the invention pertains; generally speaking, the fecal samples are firstly performed with DNA extraction and purification, followed by PCR amplification, purification and sequencing, the sequencing results will go through steps of paired sequence splicing (Raw Tags) and filtering to obtain identifiable valid data, and then OTUs clustering and species classification analysis are performed.
According to the species annotation information and abundance information of all the groups in each taxonomic rank, the top 35 genera in abundance are selected, and the group abundance is the average abundance of all the samples in the group. Clustering is performed at the species level to draw a species heatmap of the fecal samples in each group, the results are shown in FIG. 9.
Partial least square discriminant analysis (PLS-DA) is used to analyze the β-diversity of microbial flora in the feces of the mice in each group to determine whether there is a difference in bacterial flora among the microflora of the mice in each group. The microflora data of the mice in each group are analyzed by metagenomeSeq to evaluate specific differences between the microflora of the mice in each group, and the results are shown in FIG. 11A to FIG. 11D.

[3] = tested on: large intestine and small intestine tissues; assay: Length of large intestine and hematoxylin-eosin staining of small and large intestine tissues of the mice; type: in vivo; conditions: same regimen
Protocol: A number of 5-week-old male BALB/c strain mice are selected and randomly divided into groups. The experimental period is 18 days. The temperature of rearing environment of the mice in each group is maintained at 22±2° C., with a day and night cycle of 12 hours each. […] After the test period in embodiment 4, large intestine and small intestine tissues of the mice in each group are collected, and a length of the large intestine of the mice in each group is measured respectively, the results are shown in FIG. 6; the large intestine and small intestine of the mice in each group are sliced respectively, and stained with hematoxylin-eosin, the results are shown in FIGS. 7A and 7B.

[4] = tested on: IL-6; assay: Concentration of IL-6 in the serum of the mice (commercial kit); type: in vivo; conditions: same regimen, after the test period; FIG. 5
Protocol: as §1, with “each. […] After the test period in embodiment 4, the serum of the mice in each group is collected respectively, and the concentration of IL-6 in the serum of the mice in each group is analyzed with a commercial kit.” for “each.”

[5] = tested on: BALB/c strain mice; assay: Animal test: body weight, food intake and diarrhea index of mice given 5-FU drug; type: in vivo
Protocol: as §1
Body weight and feed intake of the mice in each group are measured and recorded every day during the testing period. The results are shown in FIG. 2 and FIG. 3; after administration of 5-FU drug, the feces of the mice in each group are collected, and the diarrhea index of the mice in each group is evaluated, the results are shown in FIG. 4.

## NC(=O)CC[C@H](N)C(=O)O [glutamine, L-glutamine]
[1]
  doxifluridine-induced diarrhea: incapable of inhibiting
  severity of 5-FU/calciumfolinate-induced stomatitis, nausea and diarrhea: incapable of mitigating severity
[1]; patients
  duration of chemotherapy-induced diarrhea: capable of reducing the duration
  severity of chemotherapy-induced diarrhea: incapable of improving its severity
[2]; FIG. 8, compared with 5-FU only (group 2)
  relative abundance of Proteobacteria in feces: can be reduced
[2]; FIG. 9 heatmap, compared with group 2
  abundances of the microflora associated with diarrhea and enteritis (Escherichia shigella, Odoribacter): lower than that of the mice in group 2
[2]; FIG. 10, relative to group 2
  microflora distribution (PLS-DA, β-diversity): close to that of the mice in group 2
[2]; metagenomeSeq, FIG. 11A, compared with group 2
  relative abundance of UBA1819: can not be significantly reduced
[2]; metagenomeSeq, FIG. 11B, compared with group 2
  relative abundance of Staphylococcus: can not be significantly reduced
[2]; metagenomeSeq, FIG. 11C, compared with group 2
  relative abundance of Escherichia shigella: can be significantly reduced
[2]; metagenomeSeq, FIG. 11D, compared with group 2 (5-FU only)
  relative abundance of Muribaculum: significantly reduced
[3]; after the test period, FIG. 6
  length of large intestine: maintain their large intestine lengths
[3]; FIGS. 7A and 7B, compared with 5-FU only (group 2)
  structure of small and large intestine tissues (hematoxylin-eosin): able to mitigate lesion to the structures of the small and large intestines induced by 5-FU drug
[4]
  concentration of IL-6 in the serum: significantly lower than that of the mice in group 2
[5]; 5-FU 50 mg/kg/day i.p. days 11-13, BC198 5×10^8/day and/or glutamine 1 g/kg/day oral daily, 18 days, FIG. 2
  body weight: able to maintain their body weight
[5]; same regimen, FIG. 3, group 5 statement for days 14-15
  food intake: able to maintain their body weight and food intake
[5]; same regimen, FIG. 4, compared with 5-FU only (group 2), days 14-15
  diarrhea index: able to alleviate the diarrhea caused by 5-FU drug
